The source of these data is US9079913B2, “Spiro-oxindole MDM2 antagonists” (The Regents of the University of Michigan, priority 2009, dated 2015).

Read-outs that look alike come from different tables or passages of the source. A value given as a limit tells only on which side of the number the result lay.

The test system of series [1] is Isogenic HCT-116 colon cancer cell lines. Briefly: cells. It counts as cell-based. The conditions noted are these: Homo sapiens.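 Note: cells grown in 96-well plates in McCoy's 5A medium with 10% FBS, exposed to compound for 4 days.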
Procedure: Cells were seeded in 96-well flat bottom cell culture plates at a density of 2−3×10^3 cells/well with compounds and incubated for 4 days.
Series [2] has as its system cancer cell lines with wild-type p53 / mutated or deleted p53 (ATCC). Briefly: Cell growth assay (WST-8), other cancer cell lines. It counts as cell-based. The settings on record: Homo sapiens.
Series [3] can be described thus: In vitro microsomal stability, rat. It counts as in vitro ADME.
Series [4] addresses recombinant human His-tagged MDM2 protein (residues 1-118) (Homo sapiens (Human), UniProt Q00987). Briefly: Fluorescence-polarization MDM2 binding assay.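 Note: fluorescence polarization read after three hours of incubation in potassium phosphate buffer containing bovine gamma globulin and Triton X-100.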
Setting [5] is: HCT-116, read-out: HCT-116 (p53-/-) IC50, Table 19A, HCT-116 p53-/-, cell growth.
[6] abbreviates: HCT-116, read-out: HCT-116 (p53 wild-type) IC50, Table 19A, HCT-116 p53 wild-type, cell growth.
Where [7] appears, read: LNCaP, Table 19A, LNCAP cells, p53 wild-type, cell growth, read-out: LNCAP (p53 wild-type) IC50.
[8] abbreviates: PC-3, Table 19A, PC-3 cells, deleted p53, cell growth, read-out: PC-3 (deleted p53) IC50.
Where [9] appears, read: SJSA-1, Table 19A, SJSA-1 cells, p53 wild-type, cell growth, read-out: SJSA-1 (p53 wild-type) IC50.
The mark [10] stands for this setting: Table 19A, FP binding assay, read-out: MDM2 IC50.

Chain of recombinant human His-tagged MDM2 protein (residues 1-118) (Q00987 1-118): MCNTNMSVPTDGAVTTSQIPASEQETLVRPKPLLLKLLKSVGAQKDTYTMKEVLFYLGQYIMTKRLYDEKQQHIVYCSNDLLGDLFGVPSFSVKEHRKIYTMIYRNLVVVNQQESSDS

With `CNC(=O)[C@@H]1N[C@H](CC(C)(C)C)[C@]2(C(=O)Nc3cc(Cl)c(F)cc32)[C@H]1c1cccc(Cl)c1` [MI-519-40], the IC50 in series [1] (setting [5]) is 18.5 ± 5.5 µM; in series [1] (setting [6]), 1 ± 0.1 µM; in series [2] (setting [7]), 1 ± 0.1 µM; in series [2] (setting [8]) it was 14.6 ± 2.7 µM; in series [2] (setting [9]), 1.3 ± 0.3 µM; in series [4] (setting [10]), less than 1 µM. The “% of compound remaining when incubated in rat liver microsomes” value (from here on “% of compound remaining when incubated”) in series [3] (Table 17, 0 min) is 100%; in series [3] (Table 17, 4 min), 84.2%; in series [3] (Table 17, 6 min), 70.1%; in series [3] (Table 17, 10 min), 59.6%; in series [3] (Table 17, 15 min), 58.7%; in series [3] (Table 17, 30 min), 57.6%. Besides, in series [3] (rat liver microsomes), the “microsomal stability (in words)” value was “improved microsomal stability over MI-219”.

In the case of `CN1CCN(CCCNC(=O)[C@@H]2N[C@H](CC(C)(C)C)[C@]3(C(=O)Nc4cc(Cl)ccc43)[C@H]2c2cccc(Cl)c2F)CC1` [MI-519-46], the IC50 in series [1] (setting [5]) is 4.3 ± 0.4 µM; in series [1] (setting [6]), 0.4 ± 0.1 µM; in series [2] (setting [7]), 0.5 ± 0.3 µM; in series [2] (setting [8]), 3.7 ± 0.4 µM; in series [2] (setting [9]) it was 0.5 ± 0.3 µM; in series [4] (setting [10]), less than 1 µM. Further, the “% of compound remaining when incubated” value in series [3] (Table 17, 0 min) is listed as 100%; in series [3] (Table 17, 4 min) it was 83.8%; in series [3] (Table 17, 6 min), 70.9%; in series [3] (Table 17, 10 min) it was 53.9%; in series [3] (Table 17, 15 min), 53.4%; in series [3] (Table 17, 30 min) it was 38.3%.

As for `CN1CCN(CCCNC(=O)[C@@H]2N[C@H](CC(C)(C)C)[C@]3(C(=O)Nc4cc(Cl)c(F)cc43)[C@H]2c2cccc(Cl)c2)CC1` [MI-751], the IC50 in series [1] (setting [5]) is 6.2 ± 1.2 µM; in series [1] (setting [6]), 1 ± 0.2 µM; in series [2] (setting [7]) it was 0.7 ± 0.2 µM; in series [2] (setting [8]), 3.9 ± 0.9 µM; in series [4] (setting [10]), less than 1 µM. Moreover, the “% of compound remaining when incubated” value was 100% in series [3] (Table 17, 0 min); 83.1% in series [3] (Table 17, 4 min); 62.9% in series [3] (Table 17, 6 min); 50.1% in series [3] (Table 17, 10 min); 41.6% in series [3] (Table 17, 15 min); 31.1% in series [3] (Table 17, 30 min).

As for `CC(C)(C)C[C@H]1N[C@@H](C(=O)NCCN2CCNCC2)[C@H](c2cccc(Cl)c2)[C@@]12C(=O)Nc1cc(Cl)c(F)cc12` [MI-748], the IC50 in series [1] (setting [5]) was 7.6 ± 1 µM; in series [1] (setting [6]) it was 0.9 ± 0.7 µM; in series [2] (setting [7]), 0.8 µM; in series [2] (setting [8]) it was 4.1 ± 0.1 µM; in series [4] (setting [10]) it was less than 1 µM. The “% of compound remaining when incubated” value in series [3] (Table 17, 0 min) is reported as 100%; in series [3] (Table 17, 4 min) it was 79.1%; in series [3] (Table 17, 6 min), 69.7%; in series [3] (Table 17, 10 min), 61.5%; in series [3] (Table 17, 15 min), 49.9%; in series [3] (Table 17, 30 min) it was 43.7%.

As for `CC(C)(C)C[C@H]1N[C@@H](C(=O)NCCCN2CCCC2)[C@H](c2cccc(Cl)c2F)[C@@]12C(=O)Nc1cc(Cl)c(F)cc12` [MI-764], the IC50 in series [1] (setting [5]) was 3.8 ± 0.7 µM; in series [1] (setting [6]) it was 0.5 ± 0.2 µM; in series [2] (setting [7]) it was 1 ± 0.4 µM; in series [2] (setting [8]), 2.4 ± 0.4 µM; in series [2] (setting [9]), 1.2 ± 0.3 µM; in series [4] (setting [10]), less than 1 µM. In addition, the “% of compound remaining when incubated” value was determined as 100% in series [3] (Table 17, 0 min); 87.8% in series [3] (Table 17, 4 min); 76.5% in series [3] (Table 17, 6 min); 66.5% in series [3] (Table 17, 10 min); 63.9% in series [3] (Table 17, 15 min); 55.8% in series [3] (Table 17, 30 min).

Take `CC(C)(C)C[C@H]1N[C@@H](C(=O)NCCCN2CCCCC2)[C@H](c2cccc(Cl)c2F)[C@@]12C(=O)Nc1cc(Cl)ccc12` [MI-519-44]: the IC50 was 2.8 ± 0.7 µM in series [1] (setting [5]); 0.8 µM in series [1] (setting [6]); 1.3 ± 0.2 µM in series [2] (setting [7]); 2.6 ± 0.1 µM in series [2] (setting [8]); 0.9 ± 0.1 µM in series [2] (setting [9]); less than 10 µM in series [4] (setting [10]). In addition, the “% of compound remaining when incubated” value in series [3] (Table 17, 0 min) stood at 100%; in series [3] (Table 17, 4 min) it was 85.6%; in series [3] (Table 17, 6 min) it was 74.7%; in series [3] (Table 17, 10 min), 66.4%; in series [3] (Table 17, 15 min), 61.2%; in series [3] (Table 17, 30 min), 42.5%.

`CN1CCN(CCNC(=O)[C@@H]2N[C@H](CC(C)(C)C)[C@]3(C(=O)Nc4cc(Cl)c(F)cc43)[C@H]2c2cccc(Cl)c2)CC1` [MI-749]: the IC50 was 7.8 ± 1.3 µM in series [1] (setting [5]); 1.2 ± 0.4 µM in series [1] (setting [6]); 1 ± 0.1 µM in series [2] (setting [7]); 5 ± 0.5 µM in series [2] (setting [8]); less than 1 µM in series [4] (setting [10]). Further, the “% of compound remaining when incubated” value in series [3] (Table 17, 0 min) amounted to 100%; in series [3] (Table 17, 4 min), 82.9%; in series [3] (Table 17, 6 min), 58.4%; in series [3] (Table 17, 10 min), 54.2%; in series [3] (Table 17, 15 min), 42.7%; in series [3] (Table 17, 30 min), 23%.

`CC(C)N1CCN(CCCNC(=O)[C@@H]2N[C@H](CC(C)(C)C)[C@]3(C(=O)Nc4cc(Cl)ccc43)[C@H]2c2cccc(Cl)c2F)CC1` [MI-519-45]: the IC50 was 6.9 ± 1.9 µM in series [1] (setting [5]); 0.9 ± 0.3 µM in series [1] (setting [6]); 1 ± 0.2 µM in series [2] (setting [7]); 5.1 ± 0.9 µM in series [2] (setting [8]); 0.8 ± 0.2 µM in series [2] (setting [9]); less than 10 µM in series [4] (setting [10]). Besides, the “% of compound remaining when incubated” value in series [3] (Table 17, 0 min) came out at 100%; in series [3] (Table 17, 4 min) it was 81.1%; in series [3] (Table 17, 6 min), 59.6%; in series [3] (Table 17, 10 min), 50.7%; in series [3] (Table 17, 15 min), 44.3%; in series [3] (Table 17, 30 min) it was 38.5%.

`CC(C)(C)C[C@H]1N[C@@H](C(N)=O)[C@H](c2cccc(Cl)c2)[C@@]12C(=O)Nc1cc(Cl)c(F)cc12` [MI-519-41]: the IC50 in series [1] (setting [5]) is 17.9 ± 2.2 µM; in series [1] (setting [6]), 1 ± 0.3 µM; in series [2] (setting [7]) it was 1.2 µM; in series [2] (setting [8]) it was 14.9 ± 1.1 µM; in series [2] (setting [9]) it was 1.3 ± 0.4 µM; in series [4] (setting [10]), less than 1 µM. Besides, the “% of compound remaining when incubated” value is given as 100% in series [3] (Table 17, 0 min); 84.2% in series [3] (Table 17, 4 min); 80.4% in series [3] (Table 17, 6 min); 66.1% in series [3] (Table 17, 10 min); 55.4% in series [3] (Table 17, 15 min); 42.9% in series [3] (Table 17, 30 min).

In the case of `CC(C)(C)C[C@@H]1[C@]2(C(=O)Nc3cc(Cl)c(F)cc32)[C@@H](c2cccc(Cl)c2)[C@H](C(=O)NCC[C@H](O)CO)[N+]1(C)C` [MI-719], the IC50 was more than 100 µM in series [1] (HCT-116, read-out: Inhibition of cell growth IC50, HCT116 p53 KO, Table 19B, HCT116 p53 KO); 58.6 ± 14.9 µM in series [1] (HCT-116, read-out: Inhibition of cell growth IC50, HCT116 p53 WT, Table 19B, HCT116 p53 WT); 51.2 µM in series [2] (LNCaP, Table 19B, LNCaP cells, read-out: Inhibition of cell growth IC50, LNCaP); more than 100 µM in series [2] (PC-3, Table 19B, PC3 cells, read-out: Inhibition of cell growth IC50, PC3); more than 10 µM in series [4] (Table 19B, read-out: Binding affinities to MDM2 protein as determined by FP based assay IC50).
